What was measured:
[1] = Biodistribution: organ distribution of F-18 signal in mice; format: in vivo, male NMRI mice; details: for Organ distribution of F-18 signal, intestine: intestine (with content); for Organ distribution of F-18 signal, stomach: stomach (without content)
Experimental: Biodistribution and excretion studies were performed in male NMRI mice (body weight app. 30g; 3 animals per time point). The animals were kept under normal laboratory conditions at a temperature of 22±2° C. and a dark/light rhythm of 12 hours. Food and water were provided ad libitium. During an acclimation period of at least 3 days before the beginning of the study animals were clinically examined to ascertain the absence of abnormal clinical signs. At 2, 5, 30, 60, 240 min post intravenous injection via the tail vein of ca. 150 kBq in 100 μl of the test compound, urine and feces were quantitatively collected. At the same time points, animals were sacrificed by decapitation and under isoflurane anaesthesia and the following organs and tissues were removed for the determination of radioactivity using a gamma-counter: spleen, liver, kidney, lung, femur, heart, brain, fat, thyroid, muscle, skin, blood, tail, stomach (without content), testicle, intestine (with content), pancreas, adrenals, and the remaining body. For analysis the decay corrected percentage of the injected dose per tissue weight (% ID/g±standard deviation) was calculated.

[2] = biological target: T1, Aβ plaques (Homo sapiens, UniProt P05067); experiment: Autoradiographical analysis of binding to cryosections from cortex of AD patients and controls; details: F-18 labeled compound; Alzheimer's disease patients (AD) vs controls without Aβ plaques
T1 construct: controls without Aβ plaques; from tissue; host or cells: frontal lobe / cortex sections (frozen and paraffin) from AD patients, FTD patients and age-matched controls
Text: Fresh frozen as well as paraffin embedded sections of the frontal lobe from Alzheimer's dementia patients, frontotemporal dementia patients and age matched controls were used for the study. Frozen sections, sliced at 18 μm thickness on a cryostate (Leica, Germany) and paraffin sections, sliced on a sliding microtom (Leica) at a thickness of 6 μm, were mounted onto glass slides (Superfrost Plus, Fa.Menzel, Braunschweig Germany). Frozen sections were allowed to adhere to the slides for several nights at −20° C. The paraffin sections were deparaffinized using routine histological methods. For binding studies sections were incubated with the F-18 labeled test compound at 10 Bq/μl diluted in 25 mM Hepes buffer, pH 7.4, 0.1% (BSA) (200-300 μl/slide) for 1.5 hour at room temperature in a humidified chamber. For blocking experiments a 1000-fold access of the unlabeled test substance was added to the incubation mixture. After hybridization, sections were washed four times with Hepes buffer, 0.1% BSA (or alternatively two times with 40% ethanol) and finally dipped two times into dest. water for 10 sec. The air-dried sections were exposed to imaging plates and signals were detected by a phosphoimager device (Fuji BAS5000).

T1 sequence (P05067 672-713 limits assumed): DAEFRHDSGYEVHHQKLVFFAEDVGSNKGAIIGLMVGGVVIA

O=C(NCC(=O)N1CCN(c2ccc(OCc3ccccc3)cn2)CC1)c1ccnc([18F])c1 [Example 14f, [^18F]-N-(2-{4-[5-(benzyloxy)pyridin-2-yl]piperazin-1-yl}-2-oxoethyl)-2-fluoropyridine-4carboxamide]
Organ distribution of F-18 signal, adrenals ([1]; 2 min post i.v. injection): 16.31 % ID/g | Organ distribution of F-18 signal, adrenals ([1]; 5 min post i.v. injection): 6.14 % ID/g | Organ distribution of F-18 signal, adrenals ([1]; 30 min post i.v. injection): 1.57 % ID/g | Organ distribution of F-18 signal, adrenals ([1]; 60 min post i.v. injection): 1.35 % ID/g | Organ distribution of F-18 signal, adrenals ([1]; 240 min post i.v. injection): 0.23 % ID/g | Organ distribution of F-18 signal, blood ([1]; 2 min post i.v. injection): 2.05 % ID/g | Organ distribution of F-18 signal, blood ([1]; 5 min post i.v. injection): 2.36 % ID/g | Organ distribution of F-18 signal, blood ([1]; 30 min post i.v. injection): 1.30 % ID/g | Organ distribution of F-18 signal, blood ([1]; 60 min post i.v. injection): 0.33 % ID/g | Organ distribution of F-18 signal, blood ([1]; 240 min post i.v. injection): 0.08 % ID/g | Organ distribution of F-18 signal, brain ([1]; 2 min post i.v. injection): 3.87 % ID/g | Organ distribution of F-18 signal, brain ([1]; 5 min post i.v. injection): 3.14 % ID/g | Organ distribution of F-18 signal, brain ([1]; 30 min post i.v. injection): 0.52 % ID/g | Organ distribution of F-18 signal, brain ([1]; 60 min post i.v. injection): 0.13 % ID/g | Organ distribution of F-18 signal, brain ([1]; 240 min post i.v. injection): 0.02 % ID/g | Organ distribution of F-18 signal, fat ([1]; 2 min post i.v. injection): 1.05 % ID/g | Organ distribution of F-18 signal, fat ([1]; 5 min post i.v. injection): 2.17 % ID/g | Organ distribution of F-18 signal, fat ([1]; 30 min post i.v. injection): 1.02 % ID/g | Organ distribution of F-18 signal, fat ([1]; 60 min post i.v. injection): 0.59 % ID/g | Organ distribution of F-18 signal, fat ([1]; 240 min post i.v. injection): 0.02 % ID/g | Organ distribution of F-18 signal, femur ([1]; 2 min post i.v. injection): 1.44 % ID/g | Organ distribution of F-18 signal, femur ([1]; 5 min post i.v. injection): 1.38 % ID/g | Organ distribution of F-18 signal, femur ([1]; 30 min post i.v. injection): 0.55 % ID/g | Organ distribution of F-18 signal, femur ([1]; 60 min post i.v. injection): 0.24 % ID/g | Organ distribution of F-18 signal, femur ([1]; 240 min post i.v. injection): 0.13 % ID/g | Organ distribution of F-18 signal, heart ([1]; 2 min post i.v. injection): 3.67 % ID/g | Organ distribution of F-18 signal, heart ([1]; 5 min post i.v. injection): 3.81 % ID/g | Organ distribution of F-18 signal, heart ([1]; 30 min post i.v. injection): 0.93 % ID/g | Organ distribution of F-18 signal, heart ([1]; 60 min post i.v. injection): 0.20 % ID/g | Organ distribution of F-18 signal, heart ([1]; 240 min post i.v. injection): 0.06 % ID/g | Organ distribution of F-18 signal, intestine ([1]; 2 min post i.v. injection): 2.27 % ID/g | Organ distribution of F-18 signal, intestine ([1]; 5 min post i.v. injection): 2.90 % ID/g | Organ distribution of F-18 signal, intestine ([1]; 30 min post i.v. injection): 11.37 % ID/g | Organ distribution of F-18 signal, intestine ([1]; 60 min post i.v. injection): 13.11 % ID/g | Organ distribution of F-18 signal, intestine ([1]; 240 min post i.v. injection): 13.53 % ID/g | Organ distribution of F-18 signal, kidney ([1]; 2 min post i.v. injection): 7.60 % ID/g | Organ distribution of F-18 signal, kidney ([1]; 5 min post i.v. injection): 8.59 % ID/g | Organ distribution of F-18 signal, kidney ([1]; 30 min post i.v. injection): 7.84 % ID/g | Organ distribution of F-18 signal, kidney ([1]; 60 min post i.v. injection): 2.86 % ID/g | Organ distribution of F-18 signal, kidney ([1]; 240 min post i.v. injection): 0.79 % ID/g | Organ distribution of F-18 signal, liver ([1]; 2 min post i.v. injection): 8.19 % ID/g | Organ distribution of F-18 signal, liver ([1]; 5 min post i.v. injection): 13.46 % ID/g | Organ distribution of F-18 signal, liver ([1]; 30 min post i.v. injection): 5.20 % ID/g | Organ distribution of F-18 signal, liver ([1]; 60 min post i.v. injection): 1.87 % ID/g | Organ distribution of F-18 signal, liver ([1]; 240 min post i.v. injection): 0.90 % ID/g | Organ distribution of F-18 signal, lung ([1]; 2 min post i.v. injection): 3.63 % ID/g | Organ distribution of F-18 signal, lung ([1]; 5 min post i.v. injection): 3.93 % ID/g | Organ distribution of F-18 signal, lung ([1]; 30 min post i.v. injection): 1.27 % ID/g | Organ distribution of F-18 signal, lung ([1]; 60 min post i.v. injection): 0.42 % ID/g | Organ distribution of F-18 signal, lung ([1]; 240 min post i.v. injection): 0.12 % ID/g | Organ distribution of F-18 signal, muscle ([1]; 2 min post i.v. injection): 1.94 % ID/g | Organ distribution of F-18 signal, muscle ([1]; 5 min post i.v. injection): 2.14 % ID/g | Organ distribution of F-18 signal, muscle ([1]; 30 min post i.v. injection): 0.62 % ID/g | Organ distribution of F-18 signal, muscle ([1]; 60 min post i.v. injection): 0.26 % ID/g | Organ distribution of F-18 signal, muscle ([1]; 240 min post i.v. injection): 0.03 % ID/g | Organ distribution of F-18 signal, pancreas ([1]; 2 min post i.v. injection): 4.49 % ID/g | Organ distribution of F-18 signal, pancreas ([1]; 5 min post i.v. injection): 4.49 % ID/g | Organ distribution of F-18 signal, pancreas ([1]; 30 min post i.v. injection): 1.64 % ID/g | Organ distribution of F-18 signal, pancreas ([1]; 60 min post i.v. injection): 0.32 % ID/g | Organ distribution of F-18 signal, pancreas ([1]; 240 min post i.v. injection): 0.11 % ID/g | Organ distribution of F-18 signal, skin ([1]; 2 min post i.v. injection): 1.12 % ID/g | Organ distribution of F-18 signal, skin ([1]; 5 min post i.v. injection): 1.84 % ID/g | Organ distribution of F-18 signal, skin ([1]; 30 min post i.v. injection): 1.17 % ID/g | Organ distribution of F-18 signal, skin ([1]; 60 min post i.v. injection): 0.43 % ID/g | Organ distribution of F-18 signal, skin ([1]; 240 min post i.v. injection): 0.06 % ID/g | Organ distribution of F-18 signal, spleen ([1]; 2 min post i.v. injection): 1.67 % ID/g | Organ distribution of F-18 signal, spleen ([1]; 5 min post i.v. injection): 2.25 % ID/g | Organ distribution of F-18 signal, spleen ([1]; 30 min post i.v. injection): 0.78 % ID/g | Organ distribution of F-18 signal, spleen ([1]; 60 min post i.v. injection): 0.12 % ID/g | Organ distribution of F-18 signal, spleen ([1]; 240 min post i.v. injection): 0.04 % ID/g | Organ distribution of F-18 signal, stomach ([1]; 2 min post i.v. injection): 3.81 % ID/g | Organ distribution of F-18 signal, stomach ([1]; 5 min post i.v. injection): 3.68 % ID/g | Organ distribution of F-18 signal, stomach ([1]; 30 min post i.v. injection): 2.88 % ID/g | Organ distribution of F-18 signal, stomach ([1]; 60 min post i.v. injection): 2.07 % ID/g | Organ distribution of F-18 signal, stomach ([1]; 240 min post i.v. injection): 0.46 % ID/g | Organ distribution of F-18 signal, tail ([1]; 2 min post i.v. injection): 5.14 % ID/g | Organ distribution of F-18 signal, tail ([1]; 5 min post i.v. injection): 4.06 % ID/g | Organ distribution of F-18 signal, tail ([1]; 30 min post i.v. injection): 2.28 % ID/g | Organ distribution of F-18 signal, tail ([1]; 60 min post i.v. injection): 0.67 % ID/g | Organ distribution of F-18 signal, tail ([1]; 240 min post i.v. injection): 0.31 % ID/g | Organ distribution of F-18 signal, testicle ([1]; 2 min post i.v. injection): 1.42 % ID/g | Organ distribution of F-18 signal, testicle ([1]; 5 min post i.v. injection): 1.73 % ID/g | Organ distribution of F-18 signal, testicle ([1]; 30 min post i.v. injection): 0.79 % ID/g | Organ distribution of F-18 signal, testicle ([1]; 60 min post i.v. injection): 0.27 % ID/g | Organ distribution of F-18 signal, testicle ([1]; 240 min post i.v. injection): 0.04 % ID/g | Organ distribution of F-18 signal, thyroid ([1]; 2 min post i.v. injection): 3.00 % ID/g | Organ distribution of F-18 signal, thyroid ([1]; 5 min post i.v. injection): 2.94 % ID/g | Organ distribution of F-18 signal, thyroid ([1]; 30 min post i.v. injection): 0.94 % ID/g | Organ distribution of F-18 signal, thyroid ([1]; 60 min post i.v. injection): 0.30 % ID/g | Organ distribution of F-18 signal, thyroid ([1]; 240 min post i.v. injection): 0.16 % ID/g | autoradiographical analysis of binding to cryosections from cortex [2]: Specific binding in plaque-rich regions of AD samples
